Assay results: ChEMBL document CHEMBL1201862, “PubChem BioAssay data set” (2004)
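Cells were grown in 96-well plates and exposed to each compound for 48 hours at five concentrations; endpoints were interpolated linearly between bracketing concentrations, or set to the highest concentration if not reached. GI50 marks 50% less growth.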 Activity calls are given as the source filed them. No stated cut-off is given here; in the data, active = GI50 up to about 1.1 µM and inactive = higher.

Assays:
Assay in all cases: growth of human tumour cells (NCI), 48 h
IGROV-1 = test system: IGROV-1
OVCAR-5 = test system: OVCAR-5
T47D = test system: T47D
SR = test system: SR
NCI-H522 = test system: NCI-H522
CCRF-CEM = test system: CCRF-CEM
HCT-15 = test system: HCT-15
RPMI-8226 = test system: RPMI-8226
KM12 = test system: KM12
NCI-H23 = test system: NCI-H23
UACC-257 = test system: UACC-257
SW-620 = test system: SW-620
CAKI-1 = test system: CAKI-1
SF-539 = test system: SF-539
MCF7 = test system: MCF7
EKVX = test system: EKVX
U-251 = test system: U-251
NCI-H226 = test system: NCI-H226
UO-31 = test system: UO-31
Hs-578T = test system: Hs-578T
SNB-19 = test system: SNB-19
PC-3 = test system: PC-3
SK-MEL-5 = test system: SK-MEL-5
OVCAR-3 = test system: OVCAR-3
TK-10 = test system: TK-10
SN12C = test system: SN12C
HL-60 = test system: HL-60
SK-MEL-2 = test system: SK-MEL-2
MDA-MB-231 = test system: MDA-MB-231
LOX IMVI = test system: LOX IMVI
SF-295 = test system: SF-295
786-0 = test system: 786-0
BT-549 = test system: BT-549
HOP-62 = test system: HOP-62
SNB-75 = test system: SNB-75
A498 = test system: A498
SK-MEL-28 = test system: SK-MEL-28
MOLT-4 = test system: MOLT-4
NCI/ADR-RES = test system: NCI/ADR-RES
COLO 205 = test system: COLO 205
HCC 2998 = test system: HCC 2998
OVCAR-4 = test system: OVCAR-4
HOP-92 = test system: HOP-92
M14 = test system: M14
HT-29 = test system: HT-29
ACHN = test system: ACHN
K562 = test system: K562
DU-145 = test system: DU-145
NCI-H460 = test system: NCI-H460
UACC-62 = test system: UACC-62
HCT-116 = test system: HCT-116
MDA-N = test system: MDA-N
SF-268 = test system: SF-268
OVCAR-8 = test system: OVCAR-8
SK-OV-3 = test system: SK-OV-3
MDA-MB-435 = test system: MDA-MB-435
A549 = test system: A549
Malme-3M = test system: Malme-3M
RXF 393 = test system: RXF 393

Measured: GI50

N#CC1(C#N)C(c2ccccc2)C=CC(c2ccc([N+](=O)[O-])cc2)C1(C#N)C#N (stereo not drawn)
inactive: IGROV-1 14 µM | OVCAR-5 17.1 µM | T47D 2.61 µM | SR 2.53 µM | NCI-H522 3.21 µM | RPMI-8226 2.91 µM | KM12 22.1 µM | NCI-H23 12.4 µM | UACC-257 16.3 µM | SW-620 3.66 µM | CAKI-1 3.66 µM | SF-539 2.81 µM | MCF7 5.98 µM | EKVX 14.8 µM | U-251 20.4 µM | NCI-H226 17.3 µM | UO-31 13.7 µM | Hs-578T 17.9 µM | SNB-19 15.1 µM | PC-3 12.2 µM | SK-MEL-5 10.7 µM | OVCAR-3 9.98 µM | TK-10 3.65 µM | SN12C 4.83 µM | SK-MEL-2 17.1 µM | MDA-MB-231 13.4 µM | LOX IMVI 2.35 µM | SF-295 18.5 µM | 786-0 2.67 µM | BT-549 10.4 µM | HOP-62 17.3 µM | SNB-75 24.7 µM | A498 16.6 µM | SK-MEL-28 15.8 µM | MOLT-4 2.3 µM | NCI/ADR-RES 8.38 µM | COLO 205 1.57 µM | HCC 2998 19.4 µM | OVCAR-4 16.5 µM | HOP-92 3.43 µM | M14 4.59 µM | HT-29 3.61 µM | ACHN 3.43 µM | K562 3.01 µM | DU-145 14.2 µM | NCI-H460 30.3 µM | UACC-62 12 µM | HCT-116 3.8 µM | MDA-N 6.22 µM | SF-268 17.5 µM | OVCAR-8 11.2 µM | SK-OV-3 18.5 µM | MDA-MB-435 3.37 µM | A549 17.7 µM
3.69 µM: HCT-15
active: CCRF-CEM 0.278 µM | HL-60 0.223 µM

CCOC(=O)C1(C(=O)OCC)OC(C)=NC1(C(=O)OC)C(=O)OC
inactive: IGROV-1 > 100 µM | OVCAR-5 > 100 µM | T47D > 100 µM | SR > 27.7 µM | CCRF-CEM > 100 µM | KM12 > 100 µM | NCI-H23 > 100 µM | UACC-257 > 100 µM | SW-620 > 100 µM | CAKI-1 > 100 µM | SF-539 > 100 µM | Malme-3M > 100 µM | MCF7 > 61.5 µM | EKVX > 26.2 µM | U-251 > 100 µM | NCI-H226 > 62.5 µM | UO-31 > 100 µM | Hs-578T > 100 µM | SNB-19 > 100 µM | PC-3 > 100 µM | SK-MEL-5 > 53.7 µM | OVCAR-3 > 75.3 µM | TK-10 > 100 µM | SN12C > 100 µM | HL-60 1.15 µM | SK-MEL-2 > 100 µM | MDA-MB-231 > 100 µM | LOX IMVI > 100 µM | SF-295 > 100 µM | 786-0 > 100 µM | BT-549 > 31.6 µM | HOP-62 > 100 µM | SNB-75 > 32.5 µM | A498 > 100 µM | SK-MEL-28 > 100 µM | MOLT-4 > 87.1 µM | NCI/ADR-RES > 100 µM | COLO 205 > 100 µM | HCC 2998 > 100 µM | OVCAR-4 > 100 µM | M14 > 100 µM | HT-29 > 100 µM | ACHN > 100 µM | K562 > 100 µM | DU-145 > 100 µM | NCI-H460 > 100 µM | UACC-62 > 100 µM | HCT-116 > 100 µM | MDA-N > 100 µM | SF-268 > 100 µM | OVCAR-8 > 100 µM | SK-OV-3 > 100 µM | MDA-MB-435 > 100 µM | A549 > 100 µM | RXF 393 > 100 µM
> 100 µM: HCT-15
